Counter-ions that a name gives are not always drawn.
Test system: patients undergoing a variety of general surgical procedures
Assay: Example 18: safety, Holter monitoring
Assay type: in vivo, human
From the text: Patient safety was carefully monitored throughout the trial with traditional assessments of AEs, vital signs, routine laboratory testing, and Holter monitoring (i.e., continuous recording of electrocardiogram) for 3 days after dosing. Special attention was given to cardiovascular and neurological AE, as bupivacaine toxic effects are manifest in those two body systems. In addition, special assessments were done to monitor surgical wound condition and healing over the 30 days of the trial. There were no consistent treatment-related effects on vital signs. Changes in serum chemistry and hematological parameters were those expected after major surgery, with few consistent differences between treatment groups. Cardiac safety was carefully studied using Holter monitoring for 72 hours post-dose, starting about one hour before surgery. In addition, baseline 24-hour ambulatory Holter monitoring was done after the screening visit.

CCCCN1CCCCC1C(=O)Nc1c(C)cccc1C (stereo not drawn) [Bupivacaine HCl]
At Least One Cardiovascular TEAE (Cohort 1, % of subjects): (39%) | At Least One Neurological TEAE (Cohort 1, % of subjects): (22%) | At Least One Non-Opioid TEAE (Cohort 1, % of subjects): (94%) | At Least One Serious TEAE (Cohort 1, % of subjects): (22%) | At Least One TEAE (Cohort 1, % of subjects): (94%) | At Least One Wound Infection TEAE (Cohort 1, % of subjects): (11%) | Maximum Relationship to Study Drug: Not Related (Cohort 1, % of subjects): (72%) | Maximum Relationship to Study Drug: Related (Cohort 1, % of subjects): (22%) | Maximum Severity: Mild (Cohort 1, % of subjects): (11%) | Maximum Severity: Moderate (Cohort 1, % of subjects): (61%) | Maximum Severity: Severe (Cohort 1, % of subjects): (22%) | At Least One Cardiovascular TEAE (Cohort 1, number of subjects): 7 | At Least One Neurological TEAE (Cohort 1, number of subjects): 4 | At Least One Non-Opioid TEAE (Cohort 1, number of subjects): 17 | At Least One Serious TEAE (Cohort 1, number of subjects): 4 | At Least One Serious and Related TEAE (Cohort 1, number of subjects): 0 | At Least One Severe and Related TEAE (Cohort 1, number of subjects): 0 | At Least One TEAE (Cohort 1, number of subjects): 17 | At Least One TEAE Leading to Study Discontinuation (Cohort 1, number of subjects): 0 | At Least One Wound Infection TEAE (Cohort 1, number of subjects): 2 | Deaths (Cohort 1, number of subjects): 0 | Maximum Relationship to Study Drug: Not Related (Cohort 1, number of subjects): 13 | Maximum Relationship to Study Drug: Related (Cohort 1, number of subjects): 4 | Maximum Severity: Mild (Cohort 1, number of subjects): 2 | Maximum Severity: Moderate (Cohort 1, number of subjects): 11 | Maximum Severity: Severe (Cohort 1, number of subjects): 4 | At Least One Cardiovascular TEAE (Cohort 2, % of subjects): (10%) | At Least One Neurological TEAE (Cohort 2, % of subjects): (50%) | At Least One Non-Opioid TEAE (Cohort 2, % of subjects): (95%) | At Least One Serious TEAE (Cohort 2, % of subjects): (5%) | At Least One Severe and Related TEAE (Cohort 2, % of subjects): (5%) | At Least One TEAE (Cohort 2, % of subjects): (100%) | At Least One TEAE Leading to Study Discontinuation (Cohort 2, % of subjects): (5%) | At Least One Wound Infection TEAE (Cohort 2, % of subjects): (5%) | Maximum Relationship to Study Drug: Not Related (Cohort 2, % of subjects): (50%) | Maximum Relationship to Study Drug: Related (Cohort 2, % of subjects): (50%) | Maximum Severity: Mild (Cohort 2, % of subjects): (10%) | Maximum Severity: Moderate (Cohort 2, % of subjects): (65%) | Maximum Severity: Severe (Cohort 2, % of subjects): (25%) | At Least One Cardiovascular TEAE (Cohort 2, number of subjects): 2 | At Least One Neurological TEAE (Cohort 2, number of subjects): 10 | At Least One Non-Opioid TEAE (Cohort 2, number of subjects): 19 | At Least One Serious TEAE (Cohort 2, number of subjects): 1 | At Least One Serious and Related TEAE (Cohort 2, number of subjects): 0 | At Least One Severe and Related TEAE (Cohort 2, number of subjects): 1 | At Least One TEAE (Cohort 2, number of subjects): 20 | At Least One TEAE Leading to Study Discontinuation (Cohort 2, number of subjects): 1 | At Least One Wound Infection TEAE (Cohort 2, number of subjects): 1 | Deaths (Cohort 2, number of subjects): 0 | Maximum Relationship to Study Drug: Not Related (Cohort 2, number of subjects): 10 | Maximum Relationship to Study Drug: Related (Cohort 2, number of subjects): 10 | Maximum Severity: Mild (Cohort 2, number of subjects): 2 | Maximum Severity: Moderate (Cohort 2, number of subjects): 13 | Maximum Severity: Severe (Cohort 2, number of subjects): 5
